Numbers after ± are expanded uncertainties.
Tests used:
[1] = Crystal; DTA
[2] = Molar enthalpy of transition or fusion; details: Crystal; DSC

With Cc1ccc(NC(=O)C(C)Cl)cc1 (configuration not stated) [2-chloro-N-(4-methylphenyl)propanamide] the Normal melting temperature [1] was 121.68 ± 0.43 °C and the “Molar enthalpy of transition or fusion” value [2] was 6.4 ± 0.206 kcal/mol.

Source: the NIST ThermoML archive (doi:10.1021/acs.jced.7b00288)
